# Experimental data taken from patent publication US20180327402A1, “TRIAZOLOPYRIDINE COMPOUNDS AND METHODS OF USE THEREOF” (Genentech, Inc., priority 2015, published 2018).
# What was measured:
# [1] = biological target: T1, isolated recombinant JAK1 kinase domain (Homo sapiens, UniProt P23458); assay: JAK enzyme assay (Caliper LabChip), JAK1; type: biochemical; settings: 1.5 nM JAK1, ATP 25 μM, 22° C., 30 minutes; Morrison tight binding model
# T1 construct: isolated recombinant JAK1 and JAK2 kinase domain
# Description: (§1) The activity of the isolated recombinant JAK1 and JAK2 kinase domain was measured by monitoring phosphorylation of a peptide derived from JAK3 (Val-Ala-Leu-Val-Asp-Gly-Tyr-Phe-Arg-Leu-Thr-Thr, fluorescently labeled on the N-terminus with 5-carboxyfluorescein) using the Caliper LabChip® technology (Caliper Life Sciences, Hopkinton, Mass.). To determine inhibition constants (Ki), compounds were diluted serially in DMSO and added to 50 μL kinase reactions containing purified enzyme (1.5 nM JAK1, or 0.2 nM JAK2), 100 mM HEPES buffer (pH 7.2), 0.015% Brij-35, 1.5 μM peptide substrate, ATP (25 μM), 10 mM MgCl2, 4 mM DTT at a final DMSO concentration of 2%. Reactions were incubated at 22° C. in 384-well polypropylene microtiter plates for 30 minutes and then stopped by addition of 25 μL of an EDTA containing solution (100 mM HEPES buffer (pH 7.2), 0.015% Brij-35, 150 mM EDTA), resulting in a final EDTA concentration of 50 mM. After termination of the kinase reaction, the proportion of phosphorylated product was determined as a fraction of total peptide substrate using the Caliper LabChip® 3000 according to the manufacturer's specifications. Ki values were then determined using the Morrison tight binding model (Morrison, J. F., Biochim. Biophys. Acta. 185:269-296 (1969); William, J. W. and Morrison, J. F., Meth. Enzymol., 63:437-467 (1979)) modified for ATP-competitive inhibition [Ki ═Ki,app/(1+[ATP]/Km,app)].
# [2] = biological target: T2, isolated recombinant JAK2 kinase domain (Homo sapiens, UniProt O60674); assay: JAK enzyme assay (Caliper LabChip), JAK2; type: biochemical; settings: 0.2 nM JAK2, ATP 25 μM, 22° C., 30 minutes; Morrison tight binding model
# T2 construct: isolated recombinant JAK1 and JAK2 kinase domain
# Description: as §1
# T1 sequence (P23458 875-1153 limits assumed): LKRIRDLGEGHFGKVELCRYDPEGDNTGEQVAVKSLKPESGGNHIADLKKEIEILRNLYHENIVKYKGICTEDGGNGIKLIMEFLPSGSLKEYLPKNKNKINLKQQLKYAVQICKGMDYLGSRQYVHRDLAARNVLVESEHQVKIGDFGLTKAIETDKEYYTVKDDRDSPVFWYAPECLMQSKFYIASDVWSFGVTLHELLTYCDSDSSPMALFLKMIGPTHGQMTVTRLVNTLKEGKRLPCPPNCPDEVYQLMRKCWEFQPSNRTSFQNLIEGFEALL
# T2 sequence (O60674 849-1124 limits assumed): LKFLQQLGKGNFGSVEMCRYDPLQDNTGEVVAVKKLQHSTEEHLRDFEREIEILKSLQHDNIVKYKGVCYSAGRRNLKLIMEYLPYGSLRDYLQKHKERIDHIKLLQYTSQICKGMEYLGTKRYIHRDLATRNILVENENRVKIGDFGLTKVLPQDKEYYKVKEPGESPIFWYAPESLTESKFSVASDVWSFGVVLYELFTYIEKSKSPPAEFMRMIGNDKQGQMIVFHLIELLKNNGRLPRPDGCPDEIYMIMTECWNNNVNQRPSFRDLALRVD
Ki [1] [nM],Ki [2] [nM],Structure (SMILES)
3.3,0.96,"CSc1ccc(C2(CC#N)CCN(c3cccn4nc(Nc5cnn(CCN6CCN(C7CCOCC7)CC6)c5)nc34)CC2)cc1 [M, 2-[4-(4-methylsulfanylphenyl)-1-[2-[[1-[2-(4-tetrahydropyran-4-ylpiperazin-1-yl)ethyl]pyrazol-4-yl]amino]-[1,2,4]triazolo[1,5-a]pyridin-8-yl]-4-piperidyl]acetonitrile]"
2.9,0.67,"CSc1ccc(C2(CC#N)CCN(c3cccn4nc(Nc5cnn(CCN6CCN(C(=O)N(C)C)CC6)c5)nc34)CC2)cc1 [Q, 4-[2-[4-[[8-[4-(cyanomethyl)-4-(4-methylsulfanylphenyl)-1-piperidyl]-[1,2,4]triazolo[1,5-a]pyridin-2-yl]amino]pyrazol-1-yl]ethyl]-N,N-dimethyl-piperazine-1-carboxamide]"
0.42,0.31,"CCCCn1cc(Nc2nc3c(N4CCC(CO)(c5ccc(Cl)cc5)CC4)cccn3n2)cn1 [Compound 1-11, [1-[2-[(1-butylpyrazol-4-yl)amino]-[1,2,4]triazolo[1,5-a]pyridin-8-yl]-4-(4-chlorophenyl)-4-piperidyl]methanol]"
0.16,0.13,"OCC1(c2ccc(Cl)cc2)CCN(c2cccn3nc(Nc4cnn(CC(F)F)c4)nc23)CC1 [Compound 1-14, [4-(4-chlorophenyl)-1-[2-[[1-(2,2-difluoroethyl)pyrazol-4-yl]amino]-[1,2,4]triazolo[1,5-a]pyridin-8-yl]-4-piperidyl]methanol]"
0.63,0.32,"COCCOc1ccc(COc2ccc(-c3cccn4nc(Nc5cnn(C)c5)nc34)cc2)cn1 [Compound 3-1, 8-[4-[[6-(2-methoxyethoxy)-3-pyridyl]methoxy]phenyl]-N-(1-methylpyrazol-4-yl)-[1,2,4]triazolo[1,5-a]pyridin-2-amine]"
1.9,0.48,"COCCOc1ccc(COc2ccc(-c3cccn4nc(Nc5cnn(C[C@H]6CCCN6)c5)nc34)cc2)cn1 [Compound 3-4, 8-[4-[[6-(2-methoxyethoxy)-3-pyridyl]methoxy]phenyl]-N-[1-[[(2R)-pyrrolidin-2-yl]methyl]pyrazol-4-yl]-[1,2,4]triazolo[1,5-a]pyridin-2-amine]"
2.6,0.65,"CSc1ccc(C2(CC#N)CCN(c3cccn4nc(Nc5cnn(CCN6CCN(C(C)=O)CC6)c5)nc34)CC2)cc1 [L, 2-[1-[2-[[1-[2-(4-acetylpiperazin-1-yl)ethyl]pyrazol-4-yl]amino]-[1,2,4]triazolo[1,5-a]pyridin-8-yl]-4-(4-methylsulfanylphenyl)-4-piperidyl]acetonitrile]"
0.18,0.11,"OCCCn1cc(Nc2nc3c(N4CCC(CO)(c5ccc(Cl)cc5)CC4)cccn3n2)cn1 [Compound 1-7, 3-[4-[[8-[4-(4-chlorophenyl)-4-(hydroxymethyl)-1-piperidyl]-[1,2,4]triazolo[1,5-a]pyridin-2-yl]amino]pyrazol-1-yl]propan-1-ol]"
190,86,"CN(C)C(=O)CN1CCC2(CC1)CN(C(=O)N1CC=C(c3cccn4nc(Nc5cnn(C)c5)nc34)CC1)C2 [I, N,N-dimethyl-2-[2-[4-[2-[(1-methylpyrazol-4-yl)amino]-[1,2,4]triazolo[1,5-a]pyridin-8-yl]-3,6-dihydro-2H-pyridine-1-carbonyl]-2,7-diazaspiro[3.5]nonan-7-yl]acetamide]"
0.52,0.16,"OCC1(c2ccc(Cl)cc2)CCN(c2cccn3nc(Nc4cnn(CCN5CCOCC5)c4)nc23)CC1 [Compound 1-2, [4-(4-chlorophenyl)-1-[2-[[1-(2-morpholinoethyl)pyrazol-4-yl]amino]-[1,2,4]triazolo[1,5-a]pyridin-8-yl]-4-piperidyl]methanol; formic acid]"
0.55,0.26,"CN1CCN(CCCn2cc(Nc3nc4c(N5CCC(CO)(c6ccc(Cl)cc6)CC5)cccn4n3)cn2)CC1 [Compound 1-9, [4-(4-chlorophenyl)-1-[2-[[1-[3-(4-methylpiperazin-1-yl)propyl]pyrazol-4-yl]amino]-[1,2,4]triazolo[1,5-a]pyridin-8-yl]-4-piperidyl]methanol; formic acid]"
1.7,0.47,"CSc1ccc(C2(CO)CCN(c3cccn4nc(Nc5cnn(CCN6CCC(N7CCOCC7)CC6)c5)nc34)CC2)cc1 [J, [4-(4-methylsulfanylphenyl)-1-[2-[[1-[2-(4-morpholino-1-piperidyl)ethyl]pyrazol-4-yl]amino]-[1,2,4]triazolo[1,5-a]pyridin-8-yl]-4-piperidyl]methanol]"
2.7,1.1,"CSc1ccc(C2(CC#N)CCN(c3cccn4nc(Nc5cnn(CCN6CCC(N7CCOCC7)CC6)c5)nc34)CC2)cc1 [K, 2-[4-(4-methylsulfanylphenyl)-1-[2-[[1-[2-(4-morpholino-1-piperidyl)ethyl]pyrazol-4-yl]amino]-[1,2,4]triazolo[1,5-a]pyridin-8-yl]-4-piperidyl]acetonitrile]"
0.27,0.19,"CN1CCC(n2cc(Nc3nc4c(N5CCC(CO)(c6ccc(Cl)cc6)CC5)cccn4n3)cn2)CC1 [Compound 1-12, [4-(4-chlorophenyl)-1-[2-[[1-(1-methyl-4-piperidyl)pyrazol-4-yl]amino]-[1,2,4]triazolo[1,5-a]pyridin-8-yl]-4-piperidyl]methanol; formic acid]"
0.75,0.44,"CC(C)CCn1cc(Nc2nc3c(N4CCC(CO)(c5ccc(Cl)cc5)CC4)cccn3n2)cn1 [Compound 1-13, [4-(4-chlorophenyl)-1-[2-[(1-isopentylpyrazol-4-yl)amino]-[1,2,4]triazolo[1,5-a]pyridin-8-yl]-4-piperidyl]methanol; formic acid]"
0.9,0.57,"CCc1cnn(C2(CC#N)CN(c3cccn4nc(Nc5cnn(Cc6cn(C7CCN(C8COC8)CC7)nn6)c5)nc34)C2)c1 [S, 2-[3-(4-ethylpyrazol-1-yl)-1-[1-[[1-[[1-[1-(oxetan-3-yl)-4-piperidyl]triazol-4-yl]methyl]pyrazol-4-yl]amino]-[1,2,4]triazolo[1,5-a]pyridin-8-yl]azetidin-3-yl]acetonitrile]"
1.4,0.53,"COC(=O)CNCC1(c2ccc(Cl)cc2)CCN(c2cccn3nc(Nc4cnn(C)c4)nc23)CC1 [F, formic acid; methyl 2-[[4-(4-chlorophenyl)-1-[2-[(1-methylpyrazol-4-yl)amino]-[1,2,4]triazolo[1,5-a]pyridin-8-yl]-4-piperidyl]methylamino]]"
4.6,1,"CSc1ccc(C2(CC#N)CCN(c3cccn4nc(Nc5cnn(CCN6CCN(C)C(=O)C6)c5)nc34)CC2)cc1 [O, 2-[1-[2-[[1-[2-(4-methyl-3-oxo-piperazin-1-yl)ethyl]pyrazol-4-yl]amino]-[1,2,4]triazolo[1,5-a]pyridin-8-yl]-4-(4-methylsulfanylphenyl)-4-piperidyl]acetonitrile]"
10,2.9,"Cn1cc(Nc2nc3c(N4CCC(CNCC(F)(F)F)(c5ccc(Cl)cc5)CC4)cccn3n2)cn1 [G, 8-[4-(4-chlorophenyl)-4-[(2,2,2-trifluoroethylamino)methyl]-1-piperidyl]-N-(1-methylpyrazol-4-yl)-[1,2,4]triazolo[1,5-a]pyridin-2-amine]"
0.23,0.12,"OCC1(c2ccc(Cl)cc2)CCN(c2cccn3nc(Nc4cnn(C5CCNCC5)c4)nc23)CC1 [Compound 1-5, [4-(4-chlorophenyl)-1-[2-[[1-(4-piperidyl)pyrazol-4-yl]amino]-[1,2,4]triazolo[1,5-a]pyridin-8-yl]-4-piperidyl]methanol; formic acid]"
0.45,0.12,"OCC1(c2ccc(Cl)cc2)CCN(c2cccn3nc(Nc4cnn(Cc5ccncc5)c4)nc23)CC1 [Compound 1-6, [4-(4-chlorophenyl)-1-[2-[[1-(4-pyridylmethyl)pyrazol-4-yl]amino]-[1,2,4]triazolo[1,5-a]pyridin-8-yl]-4-piperidyl]methanol; formic acid]"
0.55,0.94,"Cn1cc(Nc2nc3c(N4CCC(CN)(c5ccc(Cl)cc5)CC4)cccn3n2)cn1 [D, 8-[4-(aminomethyl)-4-(4-chlorophenyl)-1-piperidyl]-N-(1-methylpyrazol-4-yl)-[1,2,4]triazolo[1,5-a]pyridin-2-amine]"
0.82,0.2,"COCCOc1ccc(COc2ccc(-c3cccn4nc(Nc5cnn(C6CCNCC6)c5)nc34)cc2)cn1 [Compound 3-3, 8-[4-[[6-(2-methoxyethoxy)-3-pyridyl]methoxy]phenyl]-N-[1-(4-piperidyl)pyrazol-4-yl]-[1,2,4]triazolo[1,5-a]pyridin-2-amine]"
0.11,0.089,"OCCn1cc(Nc2nc3c(N4CCC(CO)(c5ccc(Cl)cc5)CC4)cccn3n2)cn1 [Compound 1-15, 2-[4-[[8-[4-(4-chlorophenyl)-4-(hydroxymethyl)-1-piperidyl]-[1,2,4]triazolo[1,5-a]pyridin-2-yl]amino]pyrazol-1-yl]ethanol]"
